Counter-ions that a name gives are not always drawn. Like-named read-outs stand apart in the source and are kept apart here.
Tests used:
Experiment in all cases: AK assay 384-well format, Prestwick library screening
E. coli = assay type: cell-based, Escherichia coli; details: 50 μM final drug concentration; for fold induction at 50 µM: Escherichia coli, 3 h
E. cloacae = assay type: cell-based, Enterobacter cloacae; details: 50 μM final drug concentration; for fold induction at 50 µM: Enterobacter cloacae, 3 h
E. faecium = assay type: cell-based, Enterococcus faecium; details: 50 μM final drug concentration; for fold induction at 50 µM: Enterococcus faecium, 3 h
[1] = test system: S. aureus strain USA300-0114; assay type: cell-based, Staphylococcus aureus; details: 50 μM final drug concentration; for fold induction at 50 µM: Staphylococcus aureus, USA300, 3 h
[2] = test system: A. baumannii strain 98-37-09; assay type: cell-based, Acinetobacter baumannii; details: 50 μM final drug concentration; for fold induction at 50 µM: Acinetobacter baumannii, 983709, 3 h
P. aeruginosa = assay type: cell-based, Pseudomonas aeruginosa; details: 50 μM final drug concentration; for fold induction at 50 µM: Pseudomonas aeruginosa, 3 h
K. pneumoniae = assay type: cell-based, Klebsiella pneumoniae; details: 50 μM final drug concentration; for fold induction at 50 µM: Klebsiella pneumoniae, 3 h
[3] = planktonic E. coli, positive cutoff 3-fold increase, read-out: AK-based Prestwick library screening result, E. coli (fold increase in extracellular AK activity)
[4] = planktonic E. cloacae, positive cutoff 3-fold increase, read-out: AK-based Prestwick library screening result, E. cloacae (fold increase in extracellular AK activity)
[5] = planktonic E. faecium, positive cutoff 3-fold increase, read-out: AK-based Prestwick library screening result, E. faecium (fold increase in extracellular AK activity)
[6] = planktonic S. aureus, positive cutoff 3-fold increase, read-out: AK-based Prestwick library screening result, S. aureus (fold increase in extracellular AK activity)
[7] = planktonic A. baumannii, positive cutoff 3-fold increase, read-out: AK-based Prestwick library screening result, A. baumannii (fold increase in extracellular AK activity)
[8] = planktonic P. aeruginosa, positive cutoff 3-fold increase, read-out: AK-based Prestwick library screening result, P. aeruginosa (fold increase in extracellular AK activity)
[9] = planktonic K. pneumoniae, positive cutoff 3-fold increase, read-out: AK-based Prestwick library screening result, K. pneumoniae (fold increase in extracellular AK activity)
[10] = 384-well format, cutoff for positive-scoring molecules 3-fold increase, read-out: AK-based Prestwick Library Screening Results, E. coli (increase in extracellular AK activity)
[11] = 384-well format, cutoff for positive-scoring molecules 3-fold increase, read-out: AK-based Prestwick Library Screening Results, E. cloacae (increase in extracellular AK activity)
[12] = 384-well format, cutoff for positive-scoring molecules 3-fold increase, read-out: AK-based Prestwick Library Screening Results, E. faecium (increase in extracellular AK activity)
[13] = 384-well format, cutoff for positive-scoring molecules 3-fold increase, read-out: AK-based Prestwick Library Screening Results, S. aureus (increase in extracellular AK activity)
[14] = 384-well format, cutoff for positive-scoring molecules 3-fold increase, read-out: AK-based Prestwick Library Screening Results, A. baumannii (increase in extracellular AK activity)
[15] = 384-well format, cutoff for positive-scoring molecules 3-fold increase, read-out: AK-based Prestwick Library Screening Results, P. aeruginosa (increase in extracellular AK activity)
[16] = 384-well format, cutoff for positive-scoring molecules 3-fold increase, read-out: AK-based Prestwick Library Screening Results, K. pneumoniae (increase in extracellular AK activity)
[17] = cutoff for positive-scoring molecules 3-fold increase
[18] = planktonic, […], read-out: AK-based Prestwick Library Screening Results, E. coli (fold increase in extracellular AK activity)
[19] = planktonic, […], read-out: AK-based Prestwick Library Screening Results, E. cloacae (fold increase in extracellular AK activity)
[20] = planktonic, […], read-out: AK-based Prestwick Library Screening Results, E. faecium (fold increase in extracellular AK activity)
[21] = planktonic, […], read-out: AK-based Prestwick Library Screening Results, S. aureus (fold increase in extracellular AK activity)
[22] = planktonic, […], read-out: AK-based Prestwick Library Screening Results, A. baumannii (fold increase in extracellular AK activity)
[23] = planktonic, […], read-out: AK-based Prestwick Library Screening Results, P. aeruginosa (fold increase in extracellular AK activity)
[24] = planktonic, […], read-out: AK-based Prestwick Library Screening Results, K. pneumoniae (fold increase in extracellular AK activity)

`O=C(O)CCc1nc(-c2ccccc2)c(-c2ccccc2)o1` [Oxaprozin] showed a fold induction at 50 µM (E. coli; [3]) of 0.6, a fold induction at 50 µM (E. cloacae; [4]) of 0.9 and a fold induction at 50 µM (E. faecium; [5]) of 1.1. It also gave a fold induction at 50 µM [1, 6] of 0.5, a fold induction at 50 µM [2, 7] of 0.7 and a fold induction at 50 µM (P. aeruginosa; [8]) of 0.7. The fold induction at 50 µM (K. pneumoniae; [9]) was 0.6.

`C[C@]12CC[C@@H]3c4ccc(O)cc4CC[C@H]3[C@@H]1C[C@@H](O)[C@@H]2O` [Estriol] was tested, and the fold induction at 50 µM (E. coli; [3]) was 1.1, the fold induction at 50 µM (E. cloacae; [4]) was 1.4 and the fold induction at 50 µM (E. faecium; [5]) was 1.1. It also gave a fold induction at 50 µM [1, 6] of 1.2, a fold induction at 50 µM [2, 7] of 1.2 and a fold induction at 50 µM (P. aeruginosa; [8]) of 1. The fold induction at 50 µM (K. pneumoniae; [9]) was 0.8.

With `NNC(=O)c1ccncc1` [Isoniazid] the fold induction at 50 µM (E. coli; [10]) was 0.6, the fold induction at 50 µM (E. cloacae; [11]) was 0.6 and the fold induction at 50 µM (E. faecium; [12]) was 1. It also gave a fold induction at 50 µM [1, 13] of 0.7, a fold induction at 50 µM [2, 14] of 0.6 and a fold induction at 50 µM (P. aeruginosa; [15]) of 0.6. It also gave a fold induction at 50 µM (K. pneumoniae; [16]) of 0.6.

`C#C[C@]1(O)CC[C@H]2[C@@H]3CCC4=CCCC[C@@H]4[C@H]3CC[C@@]21C` [Lynestrenol] gave a fold induction at 50 µM (E. coli; [10]) of 0.7, a fold induction at 50 µM (E. cloacae; [11]) of 0.7 and a fold induction at 50 µM (E. faecium; [12]) of 0.9. The fold induction at 50 µM [1, 13] was 0.5, the fold induction at 50 µM [2, 14] was 1.4 and the fold induction at 50 µM (P. aeruginosa; [15]) was 0.6. For the same compound, the fold induction at 50 µM (K. pneumoniae; [16]) was 0.6.

With `C[N+](C)(CCOc1ccccc1)Cc1ccccc1.O=C([O-])c1cc2ccccc2cc1O` [Bephenium hydroxynaphthoate] the “AK-based Prestwick Library Screening Results, E. coli (fold increase in extracellular AK activity)” value (E. coli; [17]) was 1.2, the “AK-based Prestwick Library Screening Results, E. cloacae (fold increase in extracellular AK activity)” value (E. cloacae; [17]) was 2.0 and the “AK-based Prestwick Library Screening Results, E. faecium (fold increase in extracellular AK activity)” value (E. faecium; [17]) was 1.0. The “AK-based Prestwick Library Screening Results, S. aureus (fold increase in extracellular AK activity)” value [1, 17] was 1.2, the “AK-based Prestwick Library Screening Results, A. baumannii (fold increase in extracellular AK activity)” value [2, 17] was 0.9 and the “AK-based Prestwick Library Screening Results, P. aeruginosa (fold increase in extracellular AK activity)” value (P. aeruginosa; [17]) was 1.0. The “AK-based Prestwick Library Screening Results, K. pneumoniae (fold increase in extracellular AK activity)” value (K. pneumoniae; [17]) was 1.0.

Compound `COC(=O)Nc1nc2ccc(C(=O)c3cccs3)cc2[nH]1` [Nocodazole] has a fold induction at 50 µM (E. coli; [10]) of 0.6, a fold induction at 50 µM (E. cloacae; [11]) of 0.7 and a fold induction at 50 µM (E. faecium; [12]) of 0.9. For the same compound, the fold induction at 50 µM [1, 13] was 0.6, the fold induction at 50 µM [2, 14] was 0.6 and the fold induction at 50 µM (P. aeruginosa; [15]) was 0.6. The fold induction at 50 µM (K. pneumoniae; [16]) was 0.5.

For `O=c1ccc2cc(O)c(O)cc2o1` [Esculetin], the fold induction at 50 µM (E. coli; […], read-out: AK-based Prestwick Library Screening Results, E. coli (fold increase in extracellular AK activity)) was 1.4, the fold induction at 50 µM (E. cloacae; […], read-out: AK-based Prestwick Library Screening Results, E. cloacae (fold increase in extracellular AK activity)) was 1.4 and the fold induction at 50 µM (E. faecium; […], read-out: AK-based Prestwick Library Screening Results, E. faecium (fold increase in extracellular AK activity)) was 1. It also gave a fold induction at 50 µM ([1]; […], read-out: AK-based Prestwick Library Screening Results, S. aureus (fold increase in extracellular AK activity)) of 1.1, a fold induction at 50 µM ([2]; […], read-out: AK-based Prestwick Library Screening Results, A. baumannii (fold increase in extracellular AK activity)) of 1.1 and a fold induction at 50 µM (P. aeruginosa; […], read-out: AK-based Prestwick Library Screening Results, P. aeruginosa (fold increase in extracellular AK activity)) of 0.9. For the same compound, the fold induction at 50 µM (K. pneumoniae; […], read-out: AK-based Prestwick Library Screening Results, K. pneumoniae (fold increase in extracellular AK activity)) was 1.2.

Work on `C=C(C)[C@@H]1[C@H]2OC(=O)[C@@H]1[C@]1(O)C[C@H]3O[C@]34C(=O)O[C@H]2[C@]14C` [Picrotoxinin] yielded a fold induction at 50 µM (E. coli; [18]) of 0.6, a fold induction at 50 µM (E. cloacae; [19]) of 0.7 and a fold induction at 50 µM (E. faecium; [20]) of 1. It also gave a fold induction at 50 µM [1, 21] of 0.6, a fold induction at 50 µM [2, 22] of 0.7 and a fold induction at 50 µM (P. aeruginosa; [23]) of 0.6. The fold induction at 50 µM (K. pneumoniae; [24]) was 0.6.

Work on `Cc1[nH]ccc2c1[nH]c1cc(=O)ccc12` [Harmol hydrochloride monohydrate] yielded a fold induction at 50 µM (E. coli; [18]) of 1.4, a fold induction at 50 µM (E. cloacae; [19]) of 1.6 and a fold induction at 50 µM (E. faecium; [20]) of 1. It also gave a fold induction at 50 µM [1, 21] of 0.9, a fold induction at 50 µM [2, 22] of 1.1 and a fold induction at 50 µM (P. aeruginosa; [23]) of 1.1. For the same compound, the fold induction at 50 µM (K. pneumoniae; [24]) was 0.9.

Compound `COc1cc(CNC(=O)CCCC/C=C/C(C)C)ccc1O` [Capsaicin] has a fold induction at 50 µM (E. coli; cutoff for positive-scoring molecules 3-fold increase, read-out: AK-based Prestwick Library Screening Results, E. coli (fold increase in extracellular AK activity)) of 1.3, a fold induction at 50 µM (E. cloacae; cutoff for positive-scoring molecules 3-fold increase, read-out: AK-based Prestwick Library Screening Results, E. cloacae (fold increase in extracellular AK activity)) of 1.5 and a fold induction at 50 µM (E. faecium; cutoff for positive-scoring molecules 3-fold increase, read-out: AK-based Prestwick Library Screening Results, E. faecium (fold increase in extracellular AK activity)) of 1.1. For the same compound, the fold induction at 50 µM ([1]; cutoff for positive-scoring molecules 3-fold increase, read-out: AK-based Prestwick Library Screening Results, S. aureus (fold increase in extracellular AK activity)) was 1.2, the fold induction at 50 µM ([2]; cutoff for positive-scoring molecules 3-fold increase, read-out: AK-based Prestwick Library Screening Results, A. baumannii (fold increase in extracellular AK activity)) was 1.2 and the fold induction at 50 µM (P. aeruginosa; cutoff for positive-scoring molecules 3-fold increase, read-out: AK-based Prestwick Library Screening Results, P. aeruginosa (fold increase in extracellular AK activity)) was 1.1. For the same compound, the fold induction at 50 µM (K. pneumoniae; cutoff for positive-scoring molecules 3-fold increase, read-out: AK-based Prestwick Library Screening Results, K. pneumoniae (fold increase in extracellular AK activity)) was 1.

Work on `O=C(N/N=C/c1ccc([N+](=O)[O-])o1)c1ccc(O)cc1` [Nifuroxazide] yielded a fold induction at 50 µM (E. coli; planktonic, cutoff for positive 3-fold increase, read-out: AK-based Prestwick Library Screening Results, E. coli (fold increase in extracellular AK activity)) of 1.2, a fold induction at 50 µM (E. cloacae; planktonic, cutoff for positive 3-fold increase, read-out: AK-based Prestwick Library Screening Results, E. cloacae (fold increase in extracellular AK activity)) of 1.5 and a fold induction at 50 µM (E. faecium; planktonic, cutoff for positive 3-fold increase, read-out: AK-based Prestwick Library Screening Results, E. faecium (fold increase in extracellular AK activity)) of 1. It also gave a fold induction at 50 µM ([1]; planktonic, cutoff for positive 3-fold increase, read-out: AK-based Prestwick Library Screening Results, S. aureus (fold increase in extracellular AK activity)) of 0.7, a fold induction at 50 µM ([2]; planktonic, cutoff for positive 3-fold increase, read-out: AK-based Prestwick Library Screening Results, A. baumannii (fold increase in extracellular AK activity)) of 1.1 and a fold induction at 50 µM (P. aeruginosa; planktonic, cutoff for positive 3-fold increase, read-out: AK-based Prestwick Library Screening Results, P. aeruginosa (fold increase in extracellular AK activity)) of 1.2. For the same compound, the fold induction at 50 µM (K. pneumoniae; planktonic, cutoff for positive 3-fold increase, read-out: AK-based Prestwick Library Screening Results, K. pneumoniae (fold increase in extracellular AK activity)) was 1.8.

Compound `CCN1C[C@]2(C)CC[C@H](O)[C@]34C1[C@@H](C[C@H]23)[C@@]1(O)C[C@H](OC)[C@H]2C[C@@H]4[C@@H]1[C@H]2O` [Karakoline] has a fold induction at 50 µM (E. coli; [18]) of 1, a fold induction at 50 µM (E. cloacae; [19]) of 1.3 and a fold induction at 50 µM (E. faecium; [20]) of 1. For the same compound, the fold induction at 50 µM [1, 21] was 1.2, the fold induction at 50 µM [2, 22] was 1 and the fold induction at 50 µM (P. aeruginosa; [23]) was 1.1. The fold induction at 50 µM (K. pneumoniae; [24]) was 0.9.

— US10004701B2, “Methods and compositions for treating infection” (UNIVERSITY OF ROCHESTER, priority 2012, dated 2018)
